# Laboratory results taken from patent publication US11072812B2, “Substrates for covalent tethering of proteins to functional groups or solid surfaces” (PROMEGA CORPORATION, priority 2013, dated 2021).
# Tests used:
# [1] = system: all known target of SAHA (HDAC1, HDAC2, HDAC3, HDAC6, HDAC8, HDAC10); test: Pull-down of endogenous targets from K562 cells onto HaloTag protein beads, Western blot and mass spec analysis; type: cell-based
# Description: K562 cells were plated into 150 mm dishes at 1.66×10^6 cell/ml (total of 5×10^7 cells per dish). […] Following equilibrium binding of 2 h, the media was removed; cells were quickly washed with PBS; cells lysed in a detergent-based lysis buffer for 10 min and centrifuged at 3000×g for 1 min. Clear lysates were then added to 75 ul of settled paramagnetic HaloTag® protein beads and incubated with shaking for 15 min. […] The released targets were subjected to mass spec analysis (FIG. 14B) as well as western blot analysis (FIG. 14A) with anti-HDAC1 antibody (ABCAM), anti-HDAC2 antibody (ABCAM), anti-HDAC6 antibody (Millipore), anti-HDAC3 antibody (Thermo Fisher), anti-HDAC10 (ABCAM) and anti-HDAC8 antibody (Rockland).
# [2] = system: intracellular HDAC activity; test: Intracellular HDAC activity, non-lytic HDAC-Glo I/II assay in HEK293 and K562 cells; type: cell-based; conditions: PBI-5040 relative to SAHA, 2 h
# Description: HEK293 cells were plated into a 96-well plate at 1×10^5 cell/ml, and 24 h later, the media was replaced with serum free media. K562 cells were plated in serum free media (96-well plate) at 2×10^5 cells/ml.
# HaloTag® protein [3] = test: Binding efficiency/kinetics to HaloTag protein in cell lysate (chase with fluorescent HaloTag ligand, SDS-PAGE); conditions: SAHA-chloroalkane conjugates, 1 μM, 0-60 min; compared with PBI-5231 (O6)
# Description: a) Binding efficiency to HaloTag® protein in lysate was measured by adding the methotrexate-chloroalkane conjugates to lysate from cells expressing a HaloTag® protein to a final concentration of 1 μM. Following 0-60 mins of binding, the reactions were chased with 1 μM fluorescent HaloTag® ligand. Unbound HaloTag® protein was detected through binding to the fluorescent HaloTag® ligand followed by analysis on SDS-PAGE gel and detection on a fluorescent gel scanner.
# a) Binding efficiency to HaloTag® protein in lysate was measured by adding the dexamethasone-chloroalkane conjugates to lysate from cells expressing a HaloTag® protein to a final concentration of 1 μM. Following 0-60 mins of binding, the reactions were chased with 1 μM fluorescent HaloTag® ligand. Unbound HaloTag® protein was detected through binding to the fluorescent HaloTag ligand followed by analysis on SDS-PAGE gel and detection on a fluorescent gel scanner.
# a) Binding kinetics to HaloTag® protein in cell lysate was measured by adding the modified BIRB796-chloroalkane conjugates to lysate from cells expressing a HaloTag® protein at a final concentration of 1 μM. After 0-60 min of binding, the reactions were chased with 1 μM fluorescent HaloTag® ligand (Promega Corporation). Unbound HaloTag® protein was detected through binding to the fluorescent HaloTag® ligand followed by analysis on SDS-PAGE and detection on a fluorescent gel scanner.
# Following 0-60 min of binding, the reactions were chased with 1 μM fluorescent HaloTag® ligand. Unbound HaloTag® protein was detected through binding to the fluorescent HaloTag® ligand followed by analysis on SDS-PAGE and detection on a fluorescent gel scanner.
# a) Binding kinetics to HaloTag® protein in cell lysate was measured by adding the dasatinib-chloroalkane conjugates to lysate (final concentration of 1 μM) from cells expressing a HaloTag® protein. Following 0-60 min of binding, the reactions were chased with 1 μM fluorescent HaloTag® ligand. Unbound HaloTag® protein was detected through binding to the fluorescent HaloTag® ligand followed by analysis on SDS-PAGE and detection on a fluorescent gel scanner.
# HaloTag® protein [4] = test: Binding efficiency/kinetics to HaloTag protein in cells (cell permeability; chase with fluorescent HaloTag ligand, SDS-PAGE); type: cell-based; conditions: SAHA-chloroalkane conjugates, 10 μM, 0-180 min; HaloTag localized to cytoplasm or nucleus; compared with PBI-5231 (O6)
# Description: b) Binding efficiency to HaloTag® protein in cells was measured by adding the methotrexate-chloroalkane conjugates to cells expressing a HaloTag® protein to a final concentration of 10 μM. Following 0-120 mins of binding, the reactions were chased with 5 μM fluorescent HaloTag® ligand. Unbound HaloTag® protein was detected through binding to the fluorescent HaloTag® ligand followed by cell lysis, analysis on a SDS-PAGE gel and detection on a fluorescent gel scanner.
# b) Binding efficiency to HaloTag® protein in cells was measured by adding the dexamethasone-chloroalkane conjugates to cells expressing a HaloTag® protein to a final concentration of 10 μM. Following 0-60 mins of binding, the reaction was chased with 5 μM fluorescent HaloTag ligand. Unbound HaloTag® protein was detected through binding to the fluorescent HaloTag® ligand followed by cell lysis, analysis on SDS-PAGE gel and detection on a fluorescent gel scanner.
# b) Binding kinetics to HaloTag® protein in cells was measured by adding the modified BIRB796-chloroalkane conjugates to cells expressing a HaloTag® protein at a final concentration of 10 μM. Following 0-60 min of binding, the reactions were chased with 5 μM fluorescent HaloTag® ligand. Unbound HaloTag® protein was detected through binding to the fluorescent HaloTag® ligand followed by cell lysis, analysis on SDS-PAGE and detection on a fluorescent gel scanner.
# Following 0-180 min of binding, the reactions were chased with 5 μM fluorescent HaloTag® ligand. Unbound HaloTag® protein was detected through binding to the fluorescent HaloTag® ligand followed by cell lysis, analysis on SDS-PAGE and detection on a fluorescent gel scanner.
# b) Binding kinetics to HaloTag® protein in cells was measured by adding the dasatinib-chloroalkane conjugates (final concentration of 10 μM) to cells expressing a HaloTag protein which localized to the cytoplasm or the nucleus. Following 0-90 min of binding, the reactions were chased with 5 μM fluorescent HaloTag® ligand. Unbound HaloTag® protein was detected through binding to the fluorescent HaloTag® ligand followed by cell lysis, analysis on SDS-PAGE and detection on a fluorescent gel scanner.
# [5] = molecular target: T1, ABL-NanoLuc® fusion protein (Homo sapiens, UniProt P00519); test: Pull-down of ABL-NanoLuc fusion from live HEK293 cells onto HaloTag protein beads; type: cell-based; conditions: HEK293, 20 μM conjugate, 2 h; beads 15 min; release with 400 μM dasatinib
# T1 construct: expressed in transfected cells; host or cells: HEK293
# Description: c) The 2 carbamate linkers were also compared for their ability to specifically pull down a ABL-NanoLuc® fusion protein from live cells. HEK293 cells were transfected using PEI with plasmid DNA encoding ABL-NanoLuc® fusion (transfection was done in a 96-well format). The DNA was diluted 1:100 with a promoterless carrier DNA plasmid (pCI-neo; Promega Corporation) to a final concentration of 80 ng total DNA per well. Twenty-four hours post-transfection, cells were incubated with a final concentration of 20 μM PBI-5270 or PBI-5590 while control cells were not treated with the conjugated drug. Following equilibration binding of 2 h, the media was removed; cells were quickly washed with PBS; and cells lysed in detergent-based lysis buffer for 10 min. Cell lysates were then transferred to a 96-well plate containing 0.5 μl settled paramagnetic HaloTag® protein beads and incubated with shaking for 15 min. Following binding, the unbound fraction was removed, the HaloTag® protein paramagnetic beads were washed 3×, and the captured ABL-NanoLuc® fusion was specifically released from the beads by competition with 400 μM unconjugated dasatinib for 15 min. The released ABL-NanoLuc® fusion in the experiment (+PBI-5270 or +PBI-5590) and control samples was detected by NanoGlo® reagent.
# T1 sequence (P00519 whole entry, the tested form may be a part): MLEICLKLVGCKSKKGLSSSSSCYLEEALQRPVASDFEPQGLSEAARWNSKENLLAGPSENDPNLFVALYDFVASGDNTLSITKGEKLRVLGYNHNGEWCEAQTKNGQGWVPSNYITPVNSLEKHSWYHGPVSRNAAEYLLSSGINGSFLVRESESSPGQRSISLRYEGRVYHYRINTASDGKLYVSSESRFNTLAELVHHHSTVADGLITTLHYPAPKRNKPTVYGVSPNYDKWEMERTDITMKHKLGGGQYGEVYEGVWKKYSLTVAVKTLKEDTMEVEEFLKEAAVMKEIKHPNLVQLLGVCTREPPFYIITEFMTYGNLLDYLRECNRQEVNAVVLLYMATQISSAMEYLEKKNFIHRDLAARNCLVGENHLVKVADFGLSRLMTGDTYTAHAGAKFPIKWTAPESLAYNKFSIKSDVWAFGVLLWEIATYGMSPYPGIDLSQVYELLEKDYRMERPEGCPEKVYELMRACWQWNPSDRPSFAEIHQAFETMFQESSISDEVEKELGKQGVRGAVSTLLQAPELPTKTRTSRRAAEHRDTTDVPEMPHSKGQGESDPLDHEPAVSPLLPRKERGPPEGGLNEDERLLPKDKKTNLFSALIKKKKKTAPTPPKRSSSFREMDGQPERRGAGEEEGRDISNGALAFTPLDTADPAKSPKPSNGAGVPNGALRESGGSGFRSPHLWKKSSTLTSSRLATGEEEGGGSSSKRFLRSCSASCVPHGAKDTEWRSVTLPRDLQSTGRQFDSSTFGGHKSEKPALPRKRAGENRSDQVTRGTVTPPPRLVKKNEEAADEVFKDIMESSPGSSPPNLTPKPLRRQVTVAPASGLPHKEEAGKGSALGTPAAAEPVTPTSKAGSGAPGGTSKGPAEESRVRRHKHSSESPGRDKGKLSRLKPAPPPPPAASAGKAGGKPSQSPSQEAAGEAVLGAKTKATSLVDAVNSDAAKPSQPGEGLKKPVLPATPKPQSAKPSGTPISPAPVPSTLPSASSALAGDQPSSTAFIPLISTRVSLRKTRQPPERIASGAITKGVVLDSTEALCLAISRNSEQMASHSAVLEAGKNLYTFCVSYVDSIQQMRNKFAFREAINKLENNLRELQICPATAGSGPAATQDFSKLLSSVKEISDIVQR
SMILES,"pull-down of endogenous SAHA targets incl. low affinity (HDAC8) and low abundance (HDAC3) target ([1]; 20 uM, 2 h, beads 15 min, release with 400 μM SAHA)",cellular permeability ([1]; inferred from pull down of nuclear (HDAC1) and cytoplasmic (HDAC 6) proteins),reduction in SAHA potency due to the chloroalkane modification [2],binding kinetics to HaloTag protein in cell lysate (HaloTag® protein [3]),permeability/binding kinetics to HaloTag protein in cells (HaloTag® protein [4]),pull-down of ABL:NanoLuc fusion from live cells [5]
"O=C(CCCCCCC(=O)Nc1ccc(CNC(=O)OCCOCCOCCOC(=O)NCCOCCOCCCCCCCl)cc1)NO [PBI-5040, SAHA-Carbamate]",specifically pulled down,high,~2 fold,significantly faster binding kinetics,significantly faster permeability/binding kinetics,
"Cc1nc(Nc2ncc(C(=O)Nc3c(C)cccc3Cl)s2)cc(N2CCN(CCOC(=O)NCCCCCNC(=O)OCCOCCOCCOC(=O)NCCOCCOCCCCCCCl)CC2)n1 [PBI-5270, Dasatinib Bis-Carbamate]",,,,,,pulled down efficiently
